Structures are written as SMILES.

Usually melting point stands for the temperature, or range, at which the solid turns liquid. Regarding `CC(C)(C)c1cc(-c2nnc(SCC(=O)O)s2)cc(C(C)(C)C)c1O`, the melting point was 188 °C.
In the case of `COC(=O)c1cccc(NC(=O)[C@H](Cc2ccccc2)NC(=O)OC(C)(C)C)c1` it was 62 to 66 °C; in that of `CS(=O)(=O)c1cnc(Cl)c(CCC(=O)c2ccc(Cl)c(Cl)c2)c1`, 128 to 130 °C.
In the case of `Cc1cc(OC23CC4CC(CC(C4)C2)C3)ccc1N` it was 143 to 145 °C.
The result for `Cc1ccc2c(c1)C(C)(Cl)C(=S)N2` (centres undefined) reads 185 to 187 °C; that for `CCCCCCCCCCCCCCCCCCOCC(CO)Oc1nccs1` (centres undefined), 65 to 67 °C; that for `COc1cccc(C=CC(=O)N2CCNCC2)c1`, 84 to 86 °C.
With `CCCCCn1c(=O)c2cc(C(=O)OCC)cn2c2ccccc21`, the melting point was 151 to 152 °C.
The result for `CCCc1ccc2nc(C(=O)OCC)cn2n1` reads 54 to 54.5 °C; that for `COc1nc2ccccc2nc1N(C)C(=O)N1CCN(c2cc(C)cc(C)c2)CC1`, 142 to 144 °C; that for `C1=c2ccccc2=c2c1c1cnccc1c1c2=Cc2ccccc2-1`, 225 to 227 °C.
The result for `CCNC(=O)CCCNC(=O)CCCNC(=O)CCCNC(=O)CCCNC(=O)OC(C)(C)C` reads 196 to 197 °C; that for `CCOC(=O)c1cc(Cl)n2c(C)nnc2n1`, 108 to 110 °C.
In turn, `CCC(=O)CN1C(=O)C(NC(=O)Nc2cccc(C)c2)N=C(C)c2cccc(C)c21` (centres undefined) returned a melting point of 125 to 128 °C.
In the case of `CCc1[nH]n(C2CCCC2)c2nc(Oc3ccccc3)nc(=O)c1-2` it was 175 to 177 °C; in that of `COC(=O)c1nccnc1Br`, 43 to 45 °C.
For `CCOC(=O)C1=C(C)NN=C(CC)C1c1cccc(OC)c1` (centres undefined), the melting point is 89 °C.
In the case of `O=C(O)Cn1c(=O)c2ccccc2n(CCCCN2CCC(OC(c3ccccc3)c3ccccc3)CC2)c1=O` it was 184 to 186 °C.
In the case of `CCOC(=O)c1sc(N2CCN(CC3CC3(F)F)C2=O)nc1C` (centres undefined) it was 146 to 148 °C; in that of `COCCCn1c2cc(C)ccc2n2c(C)nnc12`, 113 to 114 °C.
In the case of `CC1CCCC(C)N1S(=O)(=O)N[C@@H](Cc1ccc(Oc2nccc3cnccc23)cc1)C(=O)O` (some centres undefined) it was 151 °C; in that of `COc1cc(OC)nc(NC(=O)NS(=O)(=O)c2cccc3c2S(=O)(=O)N(C)C3)n1`, 229 to 231 °C.
`CCOC(=O)COc1ccc(C=CC(=O)O)cc1` displayed a melting point of 154 °C.
The compound `Cc1cc(-c2cc(C(F)(F)F)n3nc(CC#N)c(C#N)c3n2)ccc1Cl` displayed a melting point of 238 °C.
For `O=C1CC(c2ccc(Cl)cc2)CC(=O)N1c1ccncc1`, the melting point was 204 to 206 °C.
In the case of `COc1cc(C(C)=O)ccc1-c1ccccc1F` it was 84 to 85 °C.
The result for `C=CCOc1cc(-n2c(OC)nc(C(F)(F)F)cc2=O)c(F)cc1Cl` reads 103 to 104 °C; that for `CC(C)C1(c2ccccc2O)C(=O)N(C)c2ccccc21` (centres undefined), 172 to 174 °C; that for `CC(C)(C)NC(=O)c1ccc(Cl)cc1`, 136 to 137 °C.
In the case of `COc1ccc(/C=C/c2nc3c(c(=O)n(C)c(=O)n3C)n2C)c(OC)c1OC` it was 187 to 188 °C.
`O=C(Nc1ccc(N2CC3CC3C2)nc1)c1cc2cc(F)ccc2n1Cc1cccc(F)c1` (centres undefined) registered a melting point of 193 to 195 °C.
In the case of `CCCCc1nc2cncc(C)c2[nH]1` it was 111 to 124 °C; in that of `CCOC(=O)C=Cc1cnc2ccccc2c1`, 86.5 to 88 °C.
The result for `CC(=O)NC[C@H]1CN(c2ccc(N3CCC(O)(CN=[N+]=[N-])CC3)c(F)c2)C(=O)O1` reads 146 to 149 °C.
In the case of `COc1nccnc1NS(=O)(=O)c1cccc(F)c1` it was 142 to 143 °C; in that of `O=[N+]([O-])c1ccc(N2CCN(Cc3ccccc3)CC2)nc1CS(=O)(=O)c1ccccc1`, 175 to 176 °C; in that of `Cn1cncc1C(O)(c1ccc(Cl)cc1)c1ccc2c(c1)C(c1cccc(Cl)c1)SCC(=O)N2` (centres undefined), 210 °C.
For the compound `NS(=O)(=O)c1cc(S(N)(=O)=O)c(-c2ccccc2)cc1F`, the melting point was in the range of 174 to 175 °C.
In the case of `Cc1cc(-n2nc(C(F)F)cc2-c2ccc(S(C)(=O)=O)cc2)ccc1Cl` it was 145 to 146 °C.
In turn, `Cc1cc(C)c(C2C(=O)N3CCOCCN3C2=O)c(C)c1` showed a melting point of 248 to 250 °C.
The result for `CON=C(C(=O)O)c1csnn1` reads 110 to 113 °C.
In turn, `CC(C)[C@H]1COC(=O)N1C(=O)[C@H](C)CC(=O)OC(C)(C)C` returned a melting point of 64 to 65 °C.
In the case of `CCCCS(=O)(=O)Nc1nc(CN2CCN(C(c3ccccc3)c3ccccc3)CC2)cs1` it was 185 to 187 °C.
Compound `CCCC(=O)Nc1cc(Cl)c(O)c(Cl)c1` returned a melting point of 146 to 147 °C.
The result for `Clc1ccc(Oc2ccccc2Oc2ncc(Cl)cn2)nc1` reads 108 to 111 °C.
In the case of `Cc1ccc(C2CN(c3cc4c(cc3F)ncc3c4c(=O)c(C(=O)O)cn3C)CCN2)cc1C` (centres undefined) it was 325 °C; in that of `COc1cc(Br)c(CCC#N)cc1OC`, 78 to 80 °C; in that of `Cn1cccc(Cc2cc3cccc(-c4cccc(C(=O)NCCO)c4)c3s2)c1=O`, 173 to 174 °C.
The result for `CCCCc1nn(C(C)C(=O)NC)c(=O)n1Cc1ccc(-c2ccccc2-c2nnn[nH]2)cc1` (centres undefined) reads 153 to 155 °C; that for `CC(C)c1ccc(-c2ccnc(-c3cccc(C(=O)O)c3)c2)cc1`, 233 to 234 °C.
For the compound `CCOc1cc2c(Cl)c(C#N)cnc2cc1NC(C)=O`, the melting point lay within 202 to 204 °C.
In the case of `CC(=O)Oc1ccc(CCc2cc(OC(C)=O)cc(OC(C)=O)c2)cc1` it was 52 to 52.5 °C; in that of `COC(=O)c1cc(C(=O)c2c(C)c(NC(=O)c3cccc(OCCOS(C)(=O)=O)c3)c3ccccn23)ccc1N`, 171 °C; in that of `O=C(O)CCc1cc(CCNS(=O)(=O)c2ccc(Cl)cc2)cc(Cc2ccc(F)cc2)c1`, 85 to 87 °C.
The result for `CNC(=O)c1sc2cnccc2c1Oc1ccc(CO)cc1` reads 195 to 196 °C; that for `COC(=O)c1cccc(-c2nc(CO)cs2)c1`, 115 to 117 °C; that for `CSc1cc(CF)nc(N)n1`, 95 to 97 °C.
Regarding `COCCc1ccc(-c2ccc3c(c2)C=C(C(=O)Nc2ccc(CN(C)C4CCOCC4)cc2)CCS3(=O)=O)cc1`, the melting point is 216 to 219 °C.
Compound `CC(C)c1ccc(C(Cl)=NOS(C)(=O)=O)cc1` had a melting point of 79.5 to 82 °C.
In turn, `COc1ccc2oc3ccccc3c2c1C(=O)Nc1cc(Cl)ccc1Cl` registered a melting point of 202 °C.
In the case of `O=C1CCC(c2ccc(-c3ccc(=O)[nH]n3)cc2)=NN1` it was greater than 250 °C; in that of `O=c1[nH]c(=O)c2cc3occoc3cc12`, 277 to 280 °C; in that of `CCC(CC)n1cc(Br)nc(N2CCc3cc(OC)cc(C)c32)c1=O`, 152 to 154 °C.
In the case of `C=C1CSC2C(NC(=O)Cc3ccccc3)C(=O)N2C1C(=O)OC(c1ccccc1)c1ccccc1` (centres undefined) it was 144 to 147 °C.
`Cc1cc(C)nc(-n2nc(S(=O)(=O)Nc3c(F)cccc3F)nc2C)n1`: the melting point lay within 228 to 230 °C.
In the case of `Cc1nnc2n1-c1ccc(I)cc1C(c1ccccc1Cl)=NC2` it was 290 to 292 °C; in that of `CCCCCCCCCCCCCCCCS(=O)(=O)OC1CN(C2CCC3(C)C(CCC4C3CCC3(C)C(C(C)CCCC(C)C)CCC43)C2)C1` (centres undefined), 64.5 to 68 °C; in that of `Fc1ccc(-c2[nH]c(=S)sc2CCCl)cc1`, 176 °C.
`O=C1N(N(c2ccccc2)c2ccccc2)c2ccccc2C1(Cc1ccnc(F)c1)Cc1ccnc(F)c1` had a melting point of 179 to 180 °C.
`CC(C)CC1(C(CCN2C(=O)c3c(F)ccc(F)c3C2=O)C(=O)NO)CCN(CCc2ccccc2)C1=O` (centres undefined) displayed a melting point of 131 to 132 °C.
`N#CCNC(=O)C(=O)Oc1ccc([N+](=O)[O-])cc1`: the melting point was 123 to 124 °C.
In the case of `CCNC(=O)[C@@H]1C[C@H](OS(C)(=O)=O)CN1C(=O)OC(C)(C)C` it was 138 to 140 °C; in that of `O=C(N[C@H](Cc1ccc(C(F)(F)F)cc1)[C@@H](O)c1ccc(F)cc1)c1ccc2ccccc2c1` (racemic), 174 to 175 °C; in that of `COc1ccc(C(=CNC(=O)c2sc3ccc(C(F)(F)F)cc3c2O)c2ccc(OC)cc2)cc1`, 178 to 183 °C.
`CC(C)c1nc(C2CCCCC2)cc(-c2ccc(F)cc2)c1CO` returned a melting point of 101 to 104 °C.
In the case of `COC(=O)C1CC(c2ccc(OC)c(OC)c2)=NO1` (centres undefined) it was 106 to 108 °C; in that of `CC1CCN(C(=O)C(C)Oc2ccc(Oc3ccc(C(F)(F)F)cn3)cc2)O1` (centres undefined), 94 to 97 °C; in that of `Clc1nc2c(-c3ccccc3)cccc2o1`, 85.8 °C.
The compound `Cc1cc(-c2ccc(C(F)(F)F)cc2)cc(-c2ccnc(-c3ccnc(N)c3)n2)n1` returned a melting point of 217 °C.
As to `CCn1nc(C)c2nc(C)nc(O)c21`, the melting point was in the range of 220 to 223 °C.
In the case of `CC(=O)c1cc(C(C)=O)cc(S(N)(=O)=O)c1` it was 179 to 181 °C; in that of `Cc1cccc(OC2SCC(O)C(O)C2O)n1` (centres undefined), 54 °C; in that of `CC(C)(C)OC(=O)Nc1ccc(C#Cc2ccccc2Cl)cc1[N+](=O)[O-]`, 152 to 155 °C.
The result for `Fc1cc(-n2cc(CNC(=S)c3ccccn3)nn2)ccc1N1CCSCC1` reads 158 to 160 °C; that for `N#Cc1ccccc1-c1cccc(-n2cnc3cc(-c4cnco4)ccc32)c1`, 222 to 226 °C; that for `C[Si](C)(C)OCCOC(=O)c1ccccc1S(N)(=O)=O`, 72 to 76 °C.
In turn, `CC(C)=CCOc1ccc(C(=O)C=Cc2ccc(C(F)(F)F)cc2)c(O)c1` registered a melting point of 122 to 123 °C.
In the case of `COC(=O)C1(Cc2c[nH]c3ccccc23)CC(N=[N+]=[N-])C(=O)O1` (centres undefined) it was 110 to 112 °C; in that of `CC1=C(C(=O)O)C(c2ccc(F)c(Br)c2)C2=C(CCC2=O)N1` (centres undefined), 211 to 214 °C.

(Values after a melting point compilation (Tetko et al.; mined from patent text by program, amines drawn as free bases though some values may be those of a salt).)
